# Assays:
# 5-HT2B (h) = 5-HT2B (h) (Homo sapiens, UniProt P41595); conditions: read-out: Ki Ref; reference compound (positive control)
# [1] = molecular target: T1, FAP-expressing human WI-38 fibroblasts (Homo sapiens, UniProt Q12884); assay: Competitive FACS binding assay
# T1 construct: FAP-expressing human WI-38 fibroblasts (ECACC) were cultured in EMEM; host or cells: WI-38 human fibroblasts
# Method: Cells were analyzed in an Attune NxT flow cytometer. […] […].
# Cells were analyzed in an Attune NxT flow cytometer. […]
# Human recombinant FAP [2] = molecular target: T2, Human recombinant FAP (Homo sapiens, UniProt Q12884); assay: FRET-based FAP protease activity assay; type: biochemical; design: purchased R&D systems 3715-SE; conditions: pIC50 Category (Activity), FRET-peptide substrate, 37° C.
# Human recombinant FAP [3] = molecular target: T2, Human recombinant FAP; assay: Surface plasmon resonance (Biacore) assay; type: binding
# HEK-FAP tumor = assay: SPECT imaging and biodistribution of ^111In-labelled compounds in mice with HEK-FAP tumors; type: in vivo; conditions: FIG. 21
# [4] = In vivo SPECT/CT imaging of ^111In-3BP-4560 in mice; conditions: ^111In-labelled, FIG. 28
# NMDA = conditions: read-out: Ki Ref; reference compound (positive control)
# proteases [5] = molecular target: T3, proteases (Homo sapiens, UniProt P42574); type: biochemical; conditions: Caspase-3; Reference at 100 nM
# T3 construct: BPS Biosciences (ran the screen)
# proteases [6] = molecular target: T4, proteases (Homo sapiens, UniProt P55210); type: biochemical; conditions: Caspase-7; Reference at 1 μM
# T4 construct: BPS Biosciences (ran the screen)
# proteases [7] = molecular target: proteases (Homo sapiens, UniProt Q9UHL4); type: biochemical; conditions: DPP7; Reference at 200 μM
# proteases [8] = molecular target: T5, proteases (Homo sapiens, UniProt Q6V1X1); type: biochemical; conditions: DPP8; Reference at 200 μM
# T5 construct: BPS Biosciences (ran the screen)
# proteases [9] = molecular target: T6, proteases (Homo sapiens, UniProt P08253); type: biochemical; conditions: Matrix metalloprotease 2; Reference at 100 nM
# T6 construct: BPS Biosciences (ran the screen)
# proteases [10] = molecular target: T7, proteases (Homo sapiens, UniProt P14780, Q279R); type: biochemical; conditions: 0.1 µM
# T7 construct: BPS Biosciences (ran the screen)
# proteases [11] = molecular target: T8, proteases (Homo sapiens, UniProt P03956); type: biochemical; conditions: Matrix metalloproteasel; Reference at 1 μM
# T8 construct: BPS Biosciences (ran the screen)
# proteases [12] = molecular target: T9, proteases (Homo sapiens, UniProt Q12884); type: biochemical; conditions: FAP; Reference at 100 nM
# T9 construct: BPS Biosciences (ran the screen)
# alpha 1A (h) = alpha 1A (h) (Homo sapiens, UniProt P35348); conditions: read-out: Ki Ref; reference compound (positive control)
# proteases [13] = molecular target: T10, proteases (Homo sapiens, UniProt Q9UBX1); type: biochemical; conditions: Cathepsin F; Reference at 1 μM
# T10 construct: BPS Biosciences (ran the screen)
# proteases [14] = molecular target: T11, proteases (Hepatitis C virus genotype 2a, UniProt Q99IB8); type: biochemical; conditions: serine protease NS3 (a.a. 3-181) from Hepatitis C virus genotype 2a; Reference at 100 nM
# T11 construct: BPS Biosciences (ran the screen)
# proteases [15] = molecular target: T12, proteases (Hepatitis C virus genotype 1b, UniProt P26663); type: biochemical; conditions: serine protease NS3 (a.a. 3-181) from Hepatitis C virus genotype 1b; Reference at 100 nM
# T12 construct: BPS Biosciences (ran the screen)
# proteases [16] = molecular target: T13, proteases (Hepatitis C virus genotype 1a, UniProt P27958, D1194V); type: biochemical; conditions: serine protease NS3 (a.a. 3-181) from Hepatitis C virus genotype 1a (mutant D168V); Reference at 100 nM
# T13 construct: BPS Biosciences (ran the screen)
# proteases [17] = molecular target: T14, proteases (Hepatitis C virus genotype 1b, UniProt P26663, D1194V); type: biochemical; conditions: serine protease NS3 (a.a. 3-181) from Hepatitis C virus genotype 1b (mutant D168V); Reference at 100 nM
# T14 construct: BPS Biosciences (ran the screen)
# proteases [18] = molecular target: T15, proteases (Hepatitis C virus genotype 1b, UniProt P26663, R1181Q); type: biochemical; conditions: serine protease NS3 (a.a. 3-181) from Hepatitis C virus genotype 1b (mutant R155Q); Reference at 1 μM
# T15 construct: BPS Biosciences (ran the screen)
# [19] = tested on: metastatic colorectal cancer; conditions: patients with metastatic colorectal cancer, Phase I and II clinical trials; cited from earlier work
# proteases [20] = molecular target: T16, proteases (Homo sapiens, UniProt Q93009); type: biochemical; conditions: Ubiquitin carboxyl-terminal hydrolase 7; Reference at 1 μM
# T16 construct: BPS Biosciences (ran the screen)
# proteases [21] = molecular target: T17, proteases (Homo sapiens, UniProt P21580); type: biochemical; conditions: A20; Reference at 1 μM
# T17 construct: BPS Biosciences (ran the screen)
# proteases [22] = molecular target: T18, proteases (Homo sapiens, UniProt O75604); type: biochemical; conditions: Ubiquitin carboxyl-terminal hydrolase 2; Reference at 1 μM
# T18 construct: BPS Biosciences (ran the screen)
# proteases [23] = molecular target: T19, proteases (Homo sapiens, UniProt P54578); type: biochemical; conditions: Ubiquitin carboxyl-terminal hydrolase 14; Reference at 100 nM
# T19 construct: BPS Biosciences (ran the screen)
# proteases [24] = molecular target: T20, proteases (Homo sapiens, UniProt P45974); type: biochemical; conditions: Ubiquitin carboxyl-terminal hydrolase 5; Reference at 1 μM
# T20 construct: BPS Biosciences (ran the screen)
# proteases [25] = molecular target: T21, proteases (Homo sapiens, UniProt P09936); type: biochemical; conditions: Ubiquitin carboxy-terminal hydrolase L1; Reference at 100 nM
# T21 construct: BPS Biosciences (ran the screen)
# proteases [26] = molecular target: T22, proteases (Homo sapiens, UniProt P15374); type: biochemical; conditions: Ubiquitin carboxy-terminal hydrolase L3; Reference at 10 nM
# T22 construct: BPS Biosciences (ran the screen)
# proteases [27] = molecular target: T23, proteases (Homo sapiens, UniProt Q8N6M0); type: biochemical; conditions: Deubiquitinase OTUD6B; Reference at 1 μM
# T23 construct: BPS Biosciences (ran the screen)
# proteases [28] = molecular target: T24, proteases (Homo sapiens, UniProt P40818); type: biochemical; conditions: Ubiquitin carboxyl-terminal hydrolase 8; Reference at 1 μM
# T24 construct: BPS Biosciences (ran the screen)
# proteases [29] = molecular target: T25, proteases (Homo sapiens, UniProt Q14694); type: biochemical; conditions: Ubiquitin carboxyl-terminal hydrolase 10; Reference at 1 μM
# T25 construct: BPS Biosciences (ran the screen)
# proteases [30] = molecular target: T26, proteases (Homo sapiens, UniProt P54252); type: biochemical; conditions: Ataxin3; Reference at 10 μM
# T26 construct: BPS Biosciences (ran the screen)
# KV channel = conditions: read-out: Ki Ref; reference compound (positive control)
# T2 sequence (Q12884 whole entry): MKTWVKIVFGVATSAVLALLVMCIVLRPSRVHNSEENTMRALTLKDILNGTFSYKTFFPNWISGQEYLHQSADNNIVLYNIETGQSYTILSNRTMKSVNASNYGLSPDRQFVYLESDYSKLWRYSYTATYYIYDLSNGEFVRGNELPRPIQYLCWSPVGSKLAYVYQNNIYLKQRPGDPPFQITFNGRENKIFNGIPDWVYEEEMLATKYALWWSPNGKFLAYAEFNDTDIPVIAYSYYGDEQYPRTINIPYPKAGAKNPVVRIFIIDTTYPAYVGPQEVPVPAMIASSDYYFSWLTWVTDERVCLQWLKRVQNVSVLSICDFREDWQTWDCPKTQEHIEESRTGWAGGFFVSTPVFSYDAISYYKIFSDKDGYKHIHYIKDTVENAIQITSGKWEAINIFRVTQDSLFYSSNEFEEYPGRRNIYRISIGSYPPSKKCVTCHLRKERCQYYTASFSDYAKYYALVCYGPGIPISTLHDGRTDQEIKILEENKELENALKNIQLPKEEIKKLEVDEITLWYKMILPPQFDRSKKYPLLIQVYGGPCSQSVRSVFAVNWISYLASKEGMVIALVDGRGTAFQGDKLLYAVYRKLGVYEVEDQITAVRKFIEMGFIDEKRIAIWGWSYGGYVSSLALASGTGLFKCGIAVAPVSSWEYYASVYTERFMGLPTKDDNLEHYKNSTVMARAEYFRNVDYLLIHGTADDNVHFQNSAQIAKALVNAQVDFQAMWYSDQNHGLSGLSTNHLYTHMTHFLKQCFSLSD
# T1 sequence (Q12884 whole entry): as above
# T12 sequence (P26663 whole entry): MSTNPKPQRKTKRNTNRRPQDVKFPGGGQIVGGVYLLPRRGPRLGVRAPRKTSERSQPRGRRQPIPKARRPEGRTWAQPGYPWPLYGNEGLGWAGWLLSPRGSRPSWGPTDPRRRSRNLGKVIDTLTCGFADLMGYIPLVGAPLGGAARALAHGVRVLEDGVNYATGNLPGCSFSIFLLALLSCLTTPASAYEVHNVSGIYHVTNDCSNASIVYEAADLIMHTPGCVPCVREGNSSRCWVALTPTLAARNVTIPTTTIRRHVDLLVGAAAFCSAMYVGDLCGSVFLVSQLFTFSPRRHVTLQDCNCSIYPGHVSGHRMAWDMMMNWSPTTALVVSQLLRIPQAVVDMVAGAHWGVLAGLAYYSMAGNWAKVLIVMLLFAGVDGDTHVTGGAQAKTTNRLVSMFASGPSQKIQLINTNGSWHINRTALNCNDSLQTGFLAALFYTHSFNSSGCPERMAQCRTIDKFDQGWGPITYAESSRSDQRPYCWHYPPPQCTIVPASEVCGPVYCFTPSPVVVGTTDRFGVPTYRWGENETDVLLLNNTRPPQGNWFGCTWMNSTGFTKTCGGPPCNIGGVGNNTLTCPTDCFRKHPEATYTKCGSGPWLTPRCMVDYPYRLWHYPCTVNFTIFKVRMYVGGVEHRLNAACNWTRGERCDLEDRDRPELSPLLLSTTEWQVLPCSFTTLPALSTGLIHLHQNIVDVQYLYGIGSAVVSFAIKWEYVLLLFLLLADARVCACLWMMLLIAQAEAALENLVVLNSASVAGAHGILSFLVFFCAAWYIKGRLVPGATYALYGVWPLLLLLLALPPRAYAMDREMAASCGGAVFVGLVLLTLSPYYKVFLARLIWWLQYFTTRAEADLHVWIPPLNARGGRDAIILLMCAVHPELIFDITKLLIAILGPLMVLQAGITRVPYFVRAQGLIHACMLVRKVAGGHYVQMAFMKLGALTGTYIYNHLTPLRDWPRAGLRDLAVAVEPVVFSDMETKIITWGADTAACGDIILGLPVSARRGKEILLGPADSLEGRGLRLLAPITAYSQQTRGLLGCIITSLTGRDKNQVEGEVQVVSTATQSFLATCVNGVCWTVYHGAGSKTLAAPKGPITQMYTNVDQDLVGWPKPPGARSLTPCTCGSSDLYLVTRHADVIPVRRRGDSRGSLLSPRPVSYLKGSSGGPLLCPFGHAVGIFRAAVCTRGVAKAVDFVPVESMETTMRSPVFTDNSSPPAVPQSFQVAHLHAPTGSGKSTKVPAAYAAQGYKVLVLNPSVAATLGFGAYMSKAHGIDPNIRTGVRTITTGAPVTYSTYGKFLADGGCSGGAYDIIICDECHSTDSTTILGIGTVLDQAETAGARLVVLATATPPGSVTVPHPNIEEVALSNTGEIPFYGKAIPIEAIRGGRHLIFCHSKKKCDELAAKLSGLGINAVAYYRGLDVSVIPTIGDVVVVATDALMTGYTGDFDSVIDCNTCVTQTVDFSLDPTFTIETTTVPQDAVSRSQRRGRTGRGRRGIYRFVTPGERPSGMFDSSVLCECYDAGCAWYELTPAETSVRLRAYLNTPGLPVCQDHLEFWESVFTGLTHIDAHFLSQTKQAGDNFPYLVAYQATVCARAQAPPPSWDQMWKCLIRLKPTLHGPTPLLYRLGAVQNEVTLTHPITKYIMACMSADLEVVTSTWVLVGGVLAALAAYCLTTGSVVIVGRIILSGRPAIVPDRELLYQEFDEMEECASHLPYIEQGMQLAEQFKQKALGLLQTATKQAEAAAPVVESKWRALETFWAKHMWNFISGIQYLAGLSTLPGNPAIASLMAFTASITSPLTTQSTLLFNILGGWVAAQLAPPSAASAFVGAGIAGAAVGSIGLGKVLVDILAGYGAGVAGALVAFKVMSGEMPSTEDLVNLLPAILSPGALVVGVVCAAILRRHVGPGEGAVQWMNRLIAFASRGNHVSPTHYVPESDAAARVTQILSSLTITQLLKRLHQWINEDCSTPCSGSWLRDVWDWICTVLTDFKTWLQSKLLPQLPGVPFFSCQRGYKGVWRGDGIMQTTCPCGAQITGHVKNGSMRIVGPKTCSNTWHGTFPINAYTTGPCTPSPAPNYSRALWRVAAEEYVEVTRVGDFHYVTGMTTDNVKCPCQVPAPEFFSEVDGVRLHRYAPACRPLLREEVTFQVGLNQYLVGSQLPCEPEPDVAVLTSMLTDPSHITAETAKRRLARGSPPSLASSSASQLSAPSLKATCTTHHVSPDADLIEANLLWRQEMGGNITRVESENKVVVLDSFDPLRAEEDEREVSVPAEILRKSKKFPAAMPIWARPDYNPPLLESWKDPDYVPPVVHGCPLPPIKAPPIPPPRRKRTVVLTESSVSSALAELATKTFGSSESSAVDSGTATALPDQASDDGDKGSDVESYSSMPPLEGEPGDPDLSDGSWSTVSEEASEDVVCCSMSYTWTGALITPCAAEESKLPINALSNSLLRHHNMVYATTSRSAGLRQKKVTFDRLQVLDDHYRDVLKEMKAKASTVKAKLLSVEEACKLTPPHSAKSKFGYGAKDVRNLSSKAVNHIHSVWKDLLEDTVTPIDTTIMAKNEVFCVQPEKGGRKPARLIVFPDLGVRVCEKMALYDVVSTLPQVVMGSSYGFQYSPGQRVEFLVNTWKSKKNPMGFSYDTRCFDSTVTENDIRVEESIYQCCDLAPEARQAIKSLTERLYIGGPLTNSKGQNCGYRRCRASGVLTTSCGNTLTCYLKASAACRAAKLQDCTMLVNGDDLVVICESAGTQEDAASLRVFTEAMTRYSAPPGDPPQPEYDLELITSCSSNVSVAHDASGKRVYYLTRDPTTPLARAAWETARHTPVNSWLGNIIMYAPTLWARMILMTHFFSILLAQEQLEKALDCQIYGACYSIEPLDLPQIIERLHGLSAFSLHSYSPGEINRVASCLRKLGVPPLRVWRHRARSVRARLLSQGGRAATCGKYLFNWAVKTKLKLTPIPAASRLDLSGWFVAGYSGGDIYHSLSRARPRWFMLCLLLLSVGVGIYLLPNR
# T25 sequence (Q14694 whole entry): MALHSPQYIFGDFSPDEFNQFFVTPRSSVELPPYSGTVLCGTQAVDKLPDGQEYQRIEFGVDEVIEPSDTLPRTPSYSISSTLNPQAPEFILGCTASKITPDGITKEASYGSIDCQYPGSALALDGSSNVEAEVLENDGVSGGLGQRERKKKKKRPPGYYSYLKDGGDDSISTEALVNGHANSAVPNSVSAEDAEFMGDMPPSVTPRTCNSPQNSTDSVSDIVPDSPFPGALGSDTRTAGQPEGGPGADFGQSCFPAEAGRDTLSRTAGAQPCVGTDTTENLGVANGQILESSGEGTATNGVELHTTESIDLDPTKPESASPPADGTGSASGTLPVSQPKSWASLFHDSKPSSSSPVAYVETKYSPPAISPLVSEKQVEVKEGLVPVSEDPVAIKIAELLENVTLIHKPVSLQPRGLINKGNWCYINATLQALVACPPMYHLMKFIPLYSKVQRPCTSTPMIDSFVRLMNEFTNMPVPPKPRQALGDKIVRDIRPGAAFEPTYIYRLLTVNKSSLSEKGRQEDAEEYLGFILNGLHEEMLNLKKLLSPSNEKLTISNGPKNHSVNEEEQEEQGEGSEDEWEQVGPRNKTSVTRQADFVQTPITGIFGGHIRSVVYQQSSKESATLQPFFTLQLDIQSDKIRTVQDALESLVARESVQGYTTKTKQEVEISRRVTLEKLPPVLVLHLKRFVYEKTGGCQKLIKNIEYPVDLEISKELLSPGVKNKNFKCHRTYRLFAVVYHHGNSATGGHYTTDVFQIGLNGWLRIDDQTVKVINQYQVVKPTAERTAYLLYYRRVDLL
# T8 sequence (P03956 100-469): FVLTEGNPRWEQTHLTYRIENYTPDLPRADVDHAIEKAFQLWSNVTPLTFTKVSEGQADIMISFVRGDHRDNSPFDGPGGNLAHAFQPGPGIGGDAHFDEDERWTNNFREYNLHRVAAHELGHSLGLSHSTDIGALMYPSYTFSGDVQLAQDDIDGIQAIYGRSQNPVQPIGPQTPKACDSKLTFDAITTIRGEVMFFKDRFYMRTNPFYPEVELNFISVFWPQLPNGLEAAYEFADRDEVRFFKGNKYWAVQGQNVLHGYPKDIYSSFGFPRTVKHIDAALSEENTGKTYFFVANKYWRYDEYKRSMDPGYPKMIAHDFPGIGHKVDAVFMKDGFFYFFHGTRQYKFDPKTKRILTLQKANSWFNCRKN
# T9 sequence (Q12884 whole entry): as the sequence (Q12884 whole entry) above
compound,measurement,setting,value
COc1cc(CC(C)N)c(OC)cc1I (racemic) [(±)DOI],Ki,5-HT2B (h),4.2 nM
"CCCCNC(=O)N[C@H]1CSCc2cc(CSCCNC(=O)CN3CCN(CC(=O)O)CCN(CC(=O)O)CCN(CC(=O)O)CC3)cc(c2)CSC[C@@H](C(=O)O)NC(=O)[C@H](Cc2ccccc2)NC(=O)[C@H](CCC(N)=O)NC(=O)[C@H]([C@@H](C)O)NC(=O)[C@@H]2CCCN2C(=O)[C@@H]2CCCN2C1=O [3BP-3940, nBu-CAyl-[Cys(tMeBn(DOTA-AET))-Pro-Pro-Thr-Gln-Phe-Cys]-OH]",IC50,[1],< 10 nM
same,IC50,Human recombinant FAP [2],< 10 nM
same,Kd,Human recombinant FAP [3],< 10 nM
same,pKD Category,Human recombinant FAP [3]; Biacore assay,A (Category A stands for pKD values >8.0)
same,uptake in healthy tissues (biodistribution),HEK-FAP tumor,very low uptake in healthy tissues
"CCCCNC(=O)N[C@H]1CSCc2cc(CSCCNC(=O)CN3CCN(CC(=O)O)CCN(CC(=O)O)CCN(CC(=O)O)CC3)cc(c2)CSC[C@@H](C(N)=O)NC(=O)[C@H](Cc2ccccc2)NC(=O)[C@H](CCC(N)=O)NC(=O)[C@H]([C@@H](C)O)NC(=O)[C@@H]2CCCN2C(=O)[C@@H]2CCCN2C1=O [3BP-4560, nBu-CAyl-[Cys(tMeBn(DOTA-AET))-Pro-Pro-Thr-Gln-Phe-Cys]-NH2]",IC50,[1],< 10 nM
same,IC50,Human recombinant FAP [2],< 10 nM
same,Kd,Human recombinant FAP [3],< 10 nM
same,uptake in healthy tissues (biodistribution),[4],very low uptake in healthy tissues
O=C(O)[C@@H]1C[C@H](CP(=O)(O)O)CCN1 [CGS 19755],Ki,NMDA,140 nM
COC[C@@H]1CCCN1S(=O)(=O)c1ccc2c(c1)C(=O)C(=O)N2 [Caspase 3/7 Inhibitor I],Percentage inhibition (%),proteases [5],89%
same,Percentage inhibition (%),proteases [6],92%
N#Cc1ccc(NCCNCC(=O)N2N=CCC2C#N)nc1 (stereo not drawn) [KR62436],Percentage inhibition (%),proteases [7],83%
same,Percentage inhibition (%),proteases [8],96%
COc1ccc(S(=O)(=O)N(CC(=O)NO)CC(C)C)cc1 [NNGH],Percentage inhibition (%),proteases [9],95%
same,Percentage inhibition (%),proteases [10],92%
same,Percentage inhibition (%),proteases [11],87%
N#C[C@@H]1CC(F)(F)CN1C(=O)CNC(=O)c1ccnc2ccccc12 [SP-13786],Percentage inhibition (%),proteases [12],100%
COc1cccc(OC)c1OCCNCC1COc2ccccc2O1 (stereo not drawn) [WB 4101],Ki,alpha 1A (h),0.24 nM
Cystatin C,Percentage inhibition (%),proteases [13],74%
Denoprevir,Percentage inhibition (%),proteases [14],98%
same,Percentage inhibition (%),proteases [15],100%
same,Percentage inhibition (%),proteases [16],94%
same,Percentage inhibition (%),proteases [17],99%
same,Percentage inhibition (%),proteases [18],99%
Sibrotuzumab,patients having stable disease,[19],2 out of 17
Ub-Aldehyde,Percentage inhibition (%),proteases [20],95%
same,Percentage inhibition (%),proteases [21],99%
same,Percentage inhibition (%),proteases [22],91%
same,Percentage inhibition (%),proteases [23],96%
same,Percentage inhibition (%),proteases [24],84%
same,Percentage inhibition (%),proteases [25],92%
same,Percentage inhibition (%),proteases [26],95%
same,Percentage inhibition (%),proteases [27],97%
same,Percentage inhibition (%),proteases [28],73%
same,Percentage inhibition (%),proteases [29],82%
same,Percentage inhibition (%),proteases [30],77%
alpha-dendrotoxin,Ki,KV channel,0.097 nM
